Assay results from PubChem BioAssay (NCI).
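Compound exposure: 48 hours, 5 concentrations, 96-well plates. TGI: total growth inhibition.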

Assays:
Experiment in all cases: DTP human tumour cell line panel, 48 h
[1] = test system: SR leukemia
[2] = test system: IGROV1 ovarian
[3] = test system: EKVX NSCLC
[4] = test system: BT-549 breast
[5] = test system: MALME-3M melanoma
[6] = test system: SNB-75 CNS
[7] = test system: RPMI-8226 leukemia
[8] = test system: COLO 205 colon
[9] = test system: NCI/ADR-RES ovarian
[10] = test system: OVCAR-3 ovarian
[11] = test system: SNB-19 CNS
[12] = test system: SK-MEL-2 melanoma
[13] = test system: SK-MEL-5 melanoma
[14] = test system: MCF7 breast
[15] = test system: HT29 colon
[16] = test system: TK-10 renal
[17] = test system: SF-295 CNS
[18] = test system: UO-31 renal
[19] = test system: HCT-116 colon
[20] = test system: OVCAR-4 ovarian
[21] = test system: UACC-257 melanoma
[22] = test system: NCI-H226 lung
[23] = test system: U251 CNS
[24] = test system: T-47D breast
[25] = test system: LOX IMVI melanoma
[26] = test system: OVCAR-5 ovarian
[27] = test system: A498 renal
[28] = test system: MDA-MB-231 breast
[29] = test system: SK-OV-3 ovarian
[30] = test system: SF-268 CNS
[31] = test system: HCC-2998 colon
[32] = test system: SN12C renal
[33] = test system: 786-0 renal
[34] = test system: HCT-15 colon
[35] = test system: ACHN renal
[36] = test system: CCRF-CEM leukemia
[37] = test system: K-562 leukemia
[38] = test system: SK-MEL-28 melanoma
[39] = test system: SW-620 colon
[40] = test system: NCI-H522 lung
[41] = test system: NCI-H23 lung
[42] = test system: KM12 colon
[43] = test system: HL-60(TB) leukemia
[44] = test system: MDA-N
[45] = test system: A549 NSCLC
[46] = test system: RXF 393 renal
[47] = test system: M14 melanoma
[48] = test system: HOP-92 NSCLC
[49] = test system: UACC-62 melanoma
[50] = test system: HS 578T breast
[51] = test system: OVCAR-8 ovarian
[52] = test system: NCI-H460 lung
[53] = test system: DU-145 prostate
[54] = test system: HOP-62 NSCLC
[55] = test system: MOLT-4 leukemia
[56] = test system: PC-3 prostate
[57] = test system: SF-539 CNS
[58] = test system: MDA-MB-435
[59] = test system: CAKI-1 renal

SMILES: c1ccc(CCN2CCN=C2Cc2ccccc2)cc1
- TGI [1]: > 100 µM
- TGI [2]: > 100 µM
- TGI [3]: > 100 µM
- TGI [4]: > 100 µM
- TGI [5]: > 100 µM
- TGI [6]: > 100 µM
- TGI [7]: > 100 µM
- TGI [8]: > 100 µM
- TGI [9]: > 100 µM
- TGI [10]: > 100 µM
- TGI [11]: > 100 µM
- TGI [12]: > 100 µM
- TGI [13]: > 100 µM
- TGI [14]: > 100 µM
- TGI [15]: > 100 µM
- TGI [16]: > 100 µM
- TGI [17]: > 100 µM
- TGI [18]: > 100 µM
- TGI [19]: > 100 µM
- TGI [20]: > 100 µM
- TGI [21]: > 100 µM
- TGI [22]: > 100 µM
- TGI [23]: > 100 µM
- TGI [24]: > 100 µM
- TGI [25]: > 100 µM
- TGI [26]: > 100 µM
- TGI [27]: > 100 µM
- TGI [28]: > 100 µM
- TGI [29]: > 100 µM
- TGI [30]: > 100 µM
- TGI [31]: 38.2 µM
- TGI [32]: > 100 µM
- TGI [33]: > 100 µM
- TGI [34]: > 100 µM
- TGI [35]: > 100 µM
- TGI [36]: > 100 µM
- TGI [37]: > 100 µM
- TGI [38]: > 100 µM
- TGI [39]: > 100 µM
- TGI [40]: > 100 µM
- TGI [41]: > 100 µM
- TGI [42]: > 100 µM
- TGI [43]: > 100 µM
- TGI [44]: > 100 µM
- TGI [45]: > 100 µM
- TGI [46]: > 100 µM
- TGI [47]: > 100 µM
- TGI [48]: 93.8 µM
- TGI [49]: > 100 µM
- TGI [50]: > 100 µM
- TGI [51]: > 100 µM
- TGI [52]: > 100 µM
- TGI [53]: > 100 µM
- TGI [54]: > 100 µM

SMILES: CCOC(=O)Cn1nnc2cc(Nc3nc4ccccc4nc3C(=O)OCC)ccc21
- TGI [1]: > 100 µM
- TGI [2]: > 100 µM
- TGI [3]: > 100 µM
- TGI [4]: > 100 µM
- TGI [5]: > 100 µM
- TGI [6]: 9.39 µM
- TGI [7]: > 100 µM
- TGI [8]: > 100 µM
- TGI [9]: > 100 µM
- TGI [10]: > 100 µM
- TGI [11]: > 100 µM
- TGI [12]: > 100 µM
- TGI [13]: > 100 µM
- TGI [55]: > 100 µM
- TGI [14]: > 100 µM
- TGI [15]: > 100 µM
- TGI [16]: 59 µM
- TGI [17]: > 100 µM
- TGI [18]: 19.4 µM
- TGI [19]: > 100 µM
- TGI [20]: > 100 µM
- TGI [21]: > 100 µM
- TGI [22]: > 100 µM
- TGI [23]: > 100 µM
- TGI [24]: > 100 µM
- TGI [25]: > 100 µM
- TGI [26]: > 100 µM
- TGI [27]: > 100 µM
- TGI [29]: > 100 µM
- TGI [56]: > 100 µM
- TGI [30]: > 100 µM
- TGI [31]: > 100 µM
- TGI [32]: > 100 µM
- TGI [33]: > 100 µM
- TGI [34]: > 100 µM
- TGI [35]: > 100 µM
- TGI [36]: > 100 µM
- TGI [37]: > 100 µM
- TGI [38]: > 100 µM
- TGI [57]: 58.6 µM
- TGI [39]: > 100 µM
- TGI [40]: > 100 µM
- TGI [41]: > 100 µM
- TGI [58]: > 100 µM
- TGI [42]: > 100 µM
- TGI [43]: > 100 µM
- TGI [44]: > 100 µM
- TGI [45]: > 100 µM
- TGI [46]: 64.8 µM
- TGI [47]: > 100 µM
- TGI [48]: 50 µM
- TGI [49]: > 100 µM
- TGI [50]: > 100 µM
- TGI [51]: > 100 µM
- TGI [52]: > 100 µM
- TGI [53]: > 100 µM
- TGI [59]: > 100 µM
- TGI [54]: 79.6 µM
